Results reported in ChEMBL document CHEMBL3046927, “Synthesis and herbicidal activity of novel 5-chloro-3-fluoro-2-phenoxypyridines with a 1,3,4-oxadiazole ring” (J Pestic Sci, 2011).

Assays:
[1] = test system: Triticum aestivum; test: Phytotoxicity against Triticum aestivum (wheat) plants assessed as crop damage at 125 g ai/ha measured after 3 weeks post compound treatment; format: organism-based; settings: in vivo, 504 h
[2] = test system: Hordeum vulgare; test: Phytotoxicity against Hordeum vulgare (barley) plants assessed as crop damage at 125 g ai/ha measured after 3 weeks post compound treatment; format: organism-based; settings: in vivo, 504 h
[3] = test system: Sorghum halepense; test: Post-emergence herbicidal activity against Sorghum halepense (Johnson grass) at 125 g ai/ha measured after 3 weeks post compound treatment; format: functional
[4] = test system: Avena fatua; test: Post-emergence herbicidal activity against Avena fatua at 125 g ai/ha measured after 3 weeks post compound treatment; format: functional
[5] = test system: Echinochloa crus-galli; test: Post-emergence herbicidal activity against Echinochloa crus-galli (barnyard grass) at 125 g ai/ha measured after 3 weeks post compound treatment; format: functional

SMILES | Activity [1] [%] | Activity [2] [%] | Activity [3] [%] | Activity [4] [%] | Activity [5] [%]
CCSc1nnc([C@@H](C)Oc2ccc(Oc3ncc(Cl)cc3F)cc2)o1 | 5 | 15 | 60 | 75 | 85
CC(O)CSc1nnc([C@@H](C)Oc2ccc(Oc3ncc(Cl)cc3F)cc2)o1 (stereo not given in full) | 0 | 0 | 30 | 35 | 40
CC(Sc1nnc([C@@H](C)Oc2ccc(Oc3ncc(Cl)cc3F)cc2)o1)C(=O)O (stereo not given in full) | 0 | 15 | 60 | 70 | 70
CCCCSc1nnc([C@@H](C)Oc2ccc(Oc3ncc(Cl)cc3F)cc2)o1 | 5 | 10 | 55 | 65 | 80
CSc1nnc([C@@H](C)Oc2ccc(Oc3ncc(Cl)cc3F)cc2)o1 | 5 | 15 | 60 | 70 | 80
CCCCCSc1nnc([C@@H](C)Oc2ccc(Oc3ncc(Cl)cc3F)cc2)o1 | 0 | 5 | 50 | 55 | 70
C[C@@H](Oc1ccc(Oc2ncc(Cl)cc2F)cc1)c1nnc(SCC(=O)O)o1 | 0 | 15 | 45 | 50 | 60
CCOC(=O)Sc1nnc([C@@H](C)Oc2ccc(Oc3ncc(Cl)cc3F)cc2)o1 | 0 | 0 | 40 | 45 | 60
C#CCOC(=O)[C@@H](C)Oc1ccc(Oc2ncc(Cl)cc2F)cc1 [CLODINAFOP PROPARGYL] | 0 | 35 | 80 | 85 | 100
C[C@@H](Oc1ccc(Oc2ncc(Cl)cc2F)cc1)c1nnc(SCc2ccccc2)o1 | 0 | 0 | 20 | 25 | 35
C[C@@H](Oc1ccc(Oc2ncc(Cl)cc2F)cc1)c1nnc(SC(=O)c2ccccc2)o1 | 0 | 0 | 40 | 35 | 55
C[C@@H](Oc1ccc(Oc2ncc(Cl)cc2F)cc1)c1nnc(SCC(N)=O)o1 | 0 | 0 | 40 | 40 | 45
C[C@@H](Oc1ccc(Oc2ncc(Cl)cc2F)cc1)c1nnc(SCc2ccc(Cl)nc2)o1 | 0 | 0 | 30 | 30 | 40
C#CCSc1nnc([C@@H](C)Oc2ccc(Oc3ncc(Cl)cc3F)cc2)o1 | 0 | 0 | 80 | 95 | 100
